In brackets after ≈: the same amount, converted by molar mass.
Tests used:
Format in all cases: cell-based
[1] = test system: Enterococcus faecium (efm); assay: In vitro antibacterial activity, standard agar dilution method, efm; details: clinically separated strains, read-out: Antibiotic Activity MIC efm
Excerpt: (§1) Strains for test: all the clinically separated strains below were purchased from public facilities.
(§2) Methicillin-resistant Staphylococcus aureus (MRSA), methicillin-resistant Staphylococcus epidermidis (MRSE), methicillin-sensitive Staphylococcus aureus (MSSA), methicillin-sensitive Staphylococcus epidermidis (MSSE), Enterococcus faecalis (efa), Enterococcus faecium (efm), streptococcus pneumoniae. Obtained from: Qianfoshan Hospital, First People's Hospital of Yunnan Province, Renji Hospital of Shanghai, People's Hospital of Jilin Province, Southwest Hospital.
(§3) some compounds of the present invention (chemical names and preparation methods thereof are as described in Preparation Examples of the compounds); linezolid (commercially available) and compound 38 (prepared following the process of Patent US2011098471).
(§4) standard agar dilution method, reference was made to National Committee for Clinical Laboratory Standards. 2006. Methods for Dilution Antimicrobial Susceptibility Tests for Bacteria That Grow Aerobically, Approved Standard Seventh Edition M7-A7.

[2] = test system: methicillin-sensitive Staphylococcus aureus (MSSA); assay: In vitro antibacterial activity, standard agar dilution method, MSSA; details: clinically separated strains, read-out: Antibiotic Activity MIC MSSA
Excerpt: as §1, §2, §3, §4

[3] = test system: Enterococcus faecalis (efa); assay: In vitro antibacterial activity, standard agar dilution method, efa; details: clinically separated strains, read-out: Antibiotic Activity MIC efa
Excerpt: as §1, §2, §3, §4

streptococcus pneumoniae = assay: In vitro antibacterial activity, standard agar dilution method, Streptococcus pneumoniae; details: clinically separated strains
Excerpt: as §1, §2, §3, §4

[4] = test system: methicillin-sensitive Staphylococcus epidermidis (MSSE); assay: In vitro antibacterial activity, standard agar dilution method, MSSE; details: clinically separated strains, read-out: Antibiotic Activity MIC MSSE
Excerpt: as §1, §2, §3, §4

[5] = test system: Methicillin-resistant Staphylococcus aureus (MRSA); assay: In vitro antibacterial activity, standard agar dilution method, MRSA; details: clinically separated strains, read-out: Antibiotic Activity MIC MRSA
Excerpt: as §1, §2, §3, §4

[6] = test system: methicillin-resistant Staphylococcus epidermidis (MRSE); assay: In vitro antibacterial activity, standard agar dilution method, MRSE; details: clinically separated strains, read-out: Antibiotic Activity MIC MRSE
Excerpt: as §1, §2, §3, §4

| MIC [1] [µg/mL] | MIC [2] [µg/mL] | MIC [3] [µg/mL] | Antibiotic Activity MIC Streptococcus pneumoniae (streptococcus pneumoniae) [µg/mL] | MIC [4] [µg/mL] | MIC [5] [µg/mL] | MIC [6] [µg/mL] | Structure (SMILES) |
| --- | --- | --- | --- | --- | --- | --- | --- |
| 0.5 (≈ 1.22 µM) | 1 (≈ 2.44 µM) | 1 (≈ 2.44 µM) | 0.25 | 0.5 (≈ 1.22 µM) | 1 (≈ 2.44 µM) | 0.5 (≈ 1.22 µM) | Cn1nnc(N2Cc3ccc(-c4ccc(N5C[C@H](CO)OC5=O)cc4F)cc3C2)n1 [Compound 1, (R)-3-(3-fluoro-4-(2-(2-methyl-2H-tetrazol-5-yl)isoindolin-5-yl)phenyl)-5-(hydroxylmethyl)oxazolidin-2-one] |
| 0.5 (≈ 1.11 µM) | 0.5 (≈ 1.11 µM) | 0.5 (≈ 1.11 µM) | 0.5 | 0.5 (≈ 1.11 µM) | 0.25 (≈ 0.554 µM) | 0.25 (≈ 0.554 µM) | CC(=O)NC[C@H]1CN(c2ccc(-c3ccc4c(c3)CN(c3nnn(C)n3)C4)c(F)c2)C(=O)O1 [Compound 2, (S)—N-((3-(3-fluoro-4-(2-(2-methyl-2H-tetrazol-5-yl)isoindolin-5-yl)phenyl)-2-oxo-oxazolidin-5-yl)methyl)acetamide] |
| 0.5 (≈ 1.26 µM) | 0.5 (≈ 1.26 µM) | 0.5 (≈ 1.26 µM) | 0.5 | 0.125 (≈ 0.316 µM) | 0.5 (≈ 1.26 µM) | 0.25 (≈ 0.632 µM) | O=C1O[C@@H](CO)CN1c1ccc(-c2ccc3c(c2)CN(c2cnn[nH]2)C3)c(F)c1 [Compound 3, (R)-3-(4-(2-(1H-1,2,3-triazol-5-yl)isoindolin-5-yl)-3-fluorophenyl)-5-(hydroxylmethyl)oxazolidin-2-one] |
| 0.25 (≈ 0.573 µM) | 0.25 (≈ 0.573 µM) | 0.25 (≈ 0.573 µM) | 0.5 | 0.125 (≈ 0.286 µM) | 0.25 (≈ 0.573 µM) | 0.25 (≈ 0.573 µM) | CC(=O)NC[C@H]1CN(c2ccc(-c3ccc4c(c3)CN(c3cnn[nH]3)C4)c(F)c2)C(=O)O1 [Compound 4, (S)—N-((3-(4-(2-(1H-1,2,3-triazol-5-yl)isoindolin-5-yl)-3-fluorophenyl)-2-oxo-oxazolidin-5-yl)methyl)acetamide] |
| 2 (≈ 4.87 µM) | 1 (≈ 2.44 µM) | 2 (≈ 4.87 µM) | 1 | 0.5 (≈ 1.22 µM) | 1 (≈ 2.44 µM) | 1 (≈ 2.44 µM) | Cn1nnnc1N1Cc2ccc(-c3ccc(N4C[C@H](CO)OC4=O)cc3F)cc2C1 [Compound 19] |
| 8 (≈ 20.3 µM) | 1 (≈ 2.54 µM) | 8 (≈ 20.3 µM) | – | 0.5 (≈ 1.27 µM) | 2 (≈ 5.07 µM) | 0.5 (≈ 1.27 µM) | O=C1O[C@@H](CO)CN1c1ccc(-c2ccc3c(c2)CN(c2ccn[nH]2)C3)c(F)c1 [Compound 20] |
| 0.5 (≈ 1.11 µM) | 0.5 (≈ 1.11 µM) | 0.25 (≈ 0.555 µM) | 0.5 | 0.5 (≈ 1.11 µM) | 0.5 (≈ 1.11 µM) | 0.25 (≈ 0.555 µM) | CC(=O)NC[C@H]1CN(c2ccc(-c3ccc4nc(-c5nnn(C)n5)cn4c3)c(F)c2)C(=O)O1 [Compound 38, reference compound] |
| 2 (≈ 5.93 µM) | 2 (≈ 5.93 µM) | 2 (≈ 5.93 µM) | 2 | 2 (≈ 5.93 µM) | 2 (≈ 5.93 µM) | 1 (≈ 2.96 µM) | CC(=O)NC[C@H]1CN(c2ccc(N3CCOCC3)c(F)c2)C(=O)O1 [Linezolid, reference compound] |
